According to PMC12175168, “Refining the Amino Reactivity-Based Identification of Respiratory Sensitizers” (Chemical Research in Toxicology, 2025):
Where “and” joins values, the source holds several entries; their conditions need not be identical. Equal values may be shown once. Entries after “also recorded” stand apart in the source; their conditions may differ.

Tests used:
[1] = DPRA-like chemoassay with Gly-pNA (24 h percent depletion); conditions: PPB pH 7.4, 24 h, 25 °C, 50-fold excess of test compound
Protocol: (§1) In addition to the kinetic Gly-pNA chemoassay, the reactivity of the 27 compounds toward Gly-pNA and Lys-pNA was determined in terms of percentage depletions after reacting for 24 h at 25 °C employing the following DPRA-like setup: stock solutions for the test compounds were prepared by gravimetrically adding at least 3 mg of the respective compound into a glass vial (total volume 1.8 mL) and subsequent addition of 1 mL ACN. […] The stock solutions for Gly-pNA and Lys-pNA with a final concentration of 1.7 mM were prepared by dissolving the required amount in one of the three aqueous buffer solutions used for this DPRA-like chemoassay: phosphate buffer (80 mM, pH 7.4), phosphate buffer (80 mM, pH 10.2), and ammonium acetate buffer (100 mM, pH 10.2). Glass vials (1.8 mL) were used as reaction vessels.
(§2) In the final reaction mixtures, the concentration of Gly-pNA or Lys-pNA was 0.03 mM, and the test compound was 50 times in excess (1.5 mM). After incubation for 24 h at 25 °C, the free amount of either Gly-pNA or Lys-pNA was determined using the HPLC UV–vis method described for the kinetic Gly-pNA chemoassay. , The percentage depletion of Gly-pNA (D Gly) or Lys-pNA (D Lys) was determined directly from peak areas according to eq 3 Dx[%]=(Axcontrol−Ax/Axcontrol×100)withx=GlyorLys
(§3) In eq , A x and A x ^control are the peak areas of the chromatographic signal of either Gly-pNA (x = Gly) or Lys-pNA (x = Lys) at 315 nm after 24 h incubation with and without test compound, respectively.
(§4) Summary of experimental conditions of the DPRA-like setups used to determine
(§5) DGly, D Lys, and D DPRA data in Table 2 (main text).
(§6) Table S2. Overview of experimental conditions for the DPRA-like setups used to
(§7) determine 24 h percentage depletion rates for the reaction of the test compounds with
(§8) Gly-pNA, Lys-pNA, and the DPRA lysine peptide (literature data).

[2] = DPRA-like chemoassay with Lys-pNA (24 h percent depletion); conditions: 25 °C, 50-fold excess of test compound
Protocol: as §1, §2, §3, §4, §5, §6, §7, §8

[3] = Stability assessment of test compounds in aqueous buffers (half-lives)
Protocol: To this end, the test compound was dissolved in 1 mL ACN in a glass vial. […] As reaction batches, 1.8 mL glass vials equipped with 400 μL glass inserts were used and filled with 220 μL of the respective aqueous buffer and 80 μL of the test compound stock solution. The depletion of the test compounds was recorded with the HPLC UV–vis instrument used for the kinetic Gly-pNA chemoassay. , Chromatographic separation of the reaction mixture was achieved using the gradient described for the Gly-pNA chemoassay previously , and an isocratic HPLC method (water/ACN 70:30, both with 0.1 vol % formic acid). The wavelengths used for the detection of the compound and the information on the used chromatographic method are given in the Supporting Information in Table S3.

DPRA lysine peptide = tested on: DPRA lysine peptide; parameters: method as in literature; conditions: AAB pH 10.2, 24 h; ref literature; cited from earlier work
[4] = Kinetic Gly-pNA chemoassay (second-order rate constant k Gly);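 note: Gly-pNA depletion followed over time by chromatographic peak area, with test compound in at least tenfold excess (pseudo-first-order), added from acetonitrile stock, at least three runs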
Protocol: The reactivity of the 27 test compounds toward Gly-pNA was quantified in terms of the second-order reaction rate constant k Gly using our Gly-pNA chemoassay. , In brief, stock solutions of the test compound were freshly obtained every day by gravimetrically adding the required amount into a 10 mL volumetric flask, which was subsequently filled to volume with acetonitrile (ACN). The required amounts of test compounds depended on their reactivity toward Gly-pNA. […] As usual for kinetic studies, fast reacting chemicals are applied at lower concentrations than little reactive candidates. All stock solutions were stored at 25 °C in a climate chamber before first use (ca. 30 min) and for repeating an experiment (max. 6 h). Gly-pNA stock solution (1.69 mM) was obtained by dissolving 3.3 mg Gly-pNA in 10 mL phosphate buffer solution (80 mM) and could be used for several weeks if stored at 4 °C. For all chemoassay experiments, 1.8 mL glass vials were used as reaction batches, which were initially filled with 1070 μL phosphate buffer (80 mM) and 30 μL Gly-pNA stock solution. To start the reaction, 400 μL of the test compound stock solutions was added. […] The time between the start of the reaction and the first analysis was measured with an electronic time clock. All reactions were performed under pseudo-1st order conditions with the electrophile being at least ten times in excess over Gly-pNA.
For these compounds, the minimum reactivity was estimated in terms of k Gly by plotting ln (A Gly ^ t /A Gly ^0) vs reaction time t (with A Gly ^ t and A Gly ^0 being the peak areas under the chromatographic signal for Gly-pNA at time t and at the beginning of the reaction (t = 0)). Linear regression through 0 (at t = 0) and the first measurement point yields slope s (see Figure S1) which is the pseudo-1st order rate constant k Gly ^pseudo that can be converted with the initial test compound concentration in the reactions mixture (c) into k Gly according to eq . 1 kGly=kGlypseudo/c
2 Ln(AGlyt/AGly0)≈−kGly·c·t+0.5·kGly·kloss·c·t^2 Here k loss is the first order rate constant covering all processes contributing to the loss of the test compounds, except the reaction with Gly-pNA. The regression parameter of the linear part of eq (= k Gly·c) is the pseudo-1st order rate constant k Gly ^pseudo and can be converted into k Gly according to eq (see above).
Linear regression of these plots provides slope s, which is again the pseudo-1st order rate constant, k Gly ^pseudo, and can be used to calculate k Gly according to eq . All experiments to determine k Gly have been conducted at least three times.

[5] = ref Krutz et al., Sadekar et al., Ponder et al., Karol et al., Hopkins et al.; cited from earlier work
[6] = AAB (ammonium acetate buffer) pH 10.2, 24 h
[7] = buffer, pH 7.4, half-lives t 1/2 ± s(t 1/2), PPB (phosphate buffer 80 mM) pH 7.4
[8] = buffer, pH 10.2, half-lives t 1/2 ± s(t 1/2), AAP (ammonium acetate buffer 100 mM) pH 10.2
[9] = buffer, pH 10.2, half-lives t 1/2 ± s(t 1/2), PPB (phosphate buffer 80 mM) pH 10.2
[10] = reaction with Gly-pNA, phosphate buffer 80 mM, 25 °C, nominal test compound concentration, ≥ values are minimum reactivity
[11] = reaction with Gly-pNA, phosphate buffer, nominal test compound concentration
[12] = determined using the free (not bound by water) fraction of F1
[13] = PPB (phosphate buffer 80 mM) pH 7.4
[14] = aqueous ammonium acetate buffer with acetonitrile, pH 10.2
[15] = PPB (phosphate buffer 80 mM) pH 10.2

Row | SMILES | D Gly ± s(D Gly), 24 h percent depletion of Gly-pNA [1] | D Lys ± s(D Lys), 24 h percent depletion of Lys-pNA [2, 6] | D Lys ± s(D Lys), 24 h percent depletion of Lys-pNA ([2]; PPB pH 10.2, 24 h) | half-life [3, 7] [min] | half-life [3, 8] [min] | half-life [3, 9] [min] | D DPRA ± s(D DPRA), depletion of the DPRA lysine peptide (DPRA lysine peptide) [%] | k Gly ± s(k Gly), second-order rate constant [4, 10] [L mol^–1 min^–1] | log k Gly [4, 11] | Classification as potential respiratory sensitizer or non-sensitizer [5] | half-lives t 1/2 ± s(t 1/2) [3, 13] | also measured
1 | O=[N+]([O-])c1ccc(S(=O)(=O)Cl)c([N+](=O)[O-])c1 [E1, 2,4-dinitrobenzenesulfonyl chloride] | 56.1% and 56.1 ± 0.5% | 13.4% and 13.4 ± 0.8% | 62.6% and 62.6 ± 4.2% | < 1 | < 1 | < 1 |  |  |  |  |  | 
2 | O=C1C=CC(=O)O1 [C4, maleic anhydride] | 100% | 12.0 ± 1.1% | 100% | 35.3 ± 1.3 | < 1 | 2.7 | 54.0 ± 25.5 | ≥5930 ± 160 | 3.77 |  |  | 
3 | C=C(C#N)C(=O)OCC [F1, ethyl 2-cyanoacrylate] | 98.3 ± 0.1% | 1.6 ± 0.2% | 40.2% and 40.2 ± 1.9% |  |  |  |  | 2.22 ± 0.33 | 0.35 |  |  | k Gly ± s(k Gly), second-order rate constant [4, 12]: 10886 L mol^–1 min^–1 and 10886 ± 1589 ^c L mol^–1 min^–1; log k Gly [4, 12]: 4.02 and 4.04; free (reactive) fraction, not bound to water ([4]; in the Gly-pNA chemoassay setup): < 0.1%
4 | O=[N+]([O-])c1ccc(F)c([N+](=O)[O-])c1 [E3, 1-fluoro-2,4-dinitrobenzene] | 72.7% and 72.7 ± 0.7% | 84.0 ± 3.3% | 100% |  | 73.2 ± 9.7 | 615 ± 31 |  | 3.95 ± 0.07 | 0.6 | non-sensitizer | no depletion | 
5 | C=C(C)C(=O)OC [F5, methyl methacrylate] |  | 0.7 ± 0.3% | 2.6 ± 1.3% |  | 3060 ± 625 | 1880 ± 488 | 10.6 ± 0.8 |  |  |  | no depletion | 
6 | O=C1OC(=O)C2C3C=CC(C3)C12 (centres unmarked) [C5, himic anhydride] | 100% | 29.6 ± 0.3% | 98.9 ± 0.1% |  |  |  |  | 4126 ± 114 | 3.62 | potential respiratory sensitizer |  | k Gly ± s(k Gly), second-order rate constant ([4]; reaction with Gly-pNA, phosphate buffer 80 mM, 25 °C, nominal test compound concentration, ≥ values are minimum reactivity, listed as himic anhydride): 4126 L mol^–1 min^–1; half-life [3, 14]: < 1 min; half-life ([3]; aqueous phosphate buffer with acetonitrile, pH 7.4): 6.79 ± 0.13 min; half-life ([3]; aqueous phosphate buffer with acetonitrile, pH 10.2): 1.3 ± 0.41 min
7 | Clc1nc(Cl)nc(Cl)n1 [E2, 2,4,6-trichloro-1,3,5-triazine] | 100% | 91.1 ± 1.1% | 100% | 1.14 ± 0.05 | < 1 | < 1 | 99.7 ± 0.6 | ≥1424 ± 364 |  |  |  | 
8 | Cc1ccc(S(=O)(=O)NCl)cc1 [G2, chloramine T] | 100% | 23.9 ± 1.6% | 53.8 ± 2.9% |  |  |  | 80.8 ± 30.7 | 41.9 ± 0.2 | 1.62 |  | no depletion | half-lives t 1/2 ± s(t 1/2) [3, 15]: no depletion; half-life [3, 14]: 58.5 ± 1.3 min
9 | Cc1ccc(N=C=O)cc1N=C=O [A1, 2,4-Toluene diisocyanate] | 100% | 18.8 ± 0.6% | 100% |  |  |  | 22.0 ± 1.4 | ≥33484 ± 803 |  |  |  | half-life ([3]; buffer, pH 7.4, half-lives t 1/2 ± s(t 1/2)): < 1 min; half-life ([3]; buffer, pH 10.2, half-lives t 1/2 ± s(t 1/2)): < 1 min
10 | O=[N+]([O-])c1ccc(Cl)c([N+](=O)[O-])c1 [E4, 1-chloro-2,4-dinitrobenzene] |  | 5.0 ± 0.7% | 8.1 ± 0.5% |  |  |  | 21.1 ± 16.3 |  | –2.20 | non-sensitizer | no depletion | half-lives t 1/2 ± s(t 1/2) ([3]; AAP (ammonium acetate buffer 100 mM) pH 10.2): did not show any significant signal depletion; also recorded: no depletion; half-lives t 1/2 ± s(t 1/2) [3, 15]: no depletion
11 | CC12CC=CCC1C(=O)OC2=O (centres unmarked) [D2, methyltetrahydrophthalic anhydride] | 100% | 18.0 ± 0.9% | 100% | 2.24 ± 0.03 | < 1 | < 1 |  | 2051 ± 32 | 3.31 | potential respiratory sensitizer |  | 
12 | O=C=Nc1cccc2c(N=C=O)cccc12 [A2, 1,5-naphthalene diisocyanate] | 100% | 19.9 ± 3.7% | 100% | 3.6 ± 1.6 | < 1 | 2.6 ± 1.1 |  | ≥24928 ± 12821 | ≥4.40 | potential respiratory sensitizer |  | 
